Measurements taken from patent publication US20130131136A1, “NOVEL METHODS FOR PREDICTING THE RESPONSIVENESS OF A PATIENT AFFECTED WITH A TUMOR TO A TREATMENT WITH A TYROSINE KINASE INHIBITOR” (priority 2010, published 2013).

What was measured:
[1] = tested on: advanced metastatic renal cell clear cell carcinoma; test: Sutent treatment of patients with advanced metastatic renal cell clear cell carcinoma, response after the 3 months therapy course (RECIST criteria); assay type: in vivo, human; settings: of 50 patients analyzed, 50 mg/day for 4 weeks followed by 2 weeks off
Method: All patients were diagnosed with advanced metastatic renal cell clear cell carcinoma and subjected to surgery for removal of the primary tumor. The tumor tissue was fixed in formaldehyde, and embedded in paraffin. Sections were cut and stained for the FSH receptor using the monoclonal antibody FSHR323, followed by a secondary HRP- or Alexa555-coupled antibody. The density of vessels in the tumor tissue was determined by microscopy using a 20× objective. Starting at the border between the normal and the tumor tissue and moving towards the interior of the tumor, digital photographs were taken of every other field. The number of FSHR-positive vessels in each image was counted in 20 images from each tumor.
The patients were subjected to Sutent treatment for >=3 months with a dose of 50 mg/day for 4 weeks followed by 2 weeks off. Depending on the effects of the treatment, at the end of the 3 months therapy course the patients were designated as “responsive”, “stable” or “non-responsive” according to the criteria described in [Eisenhauer et al., 2009]. The patients were categorized as “responsive” if there was at least a 30% decrease in the sum of the diameters of the lesions, and “non-responsive” if the sum of the lesion sizes increased by at least 20%.

[2] = tested on: metastatic renal cell carcinoma (mRCC); settings: cited from earlier work
RCC = settings: BEV alone; cited from earlier work

CCN(CC)CCNC(=O)c1c(C)[nH]c(/C=C2\C(=O)Nc3ccc(F)cc32)c1C [Sutent, N-[2-(diethylamino)ethyl]-5-[(Z)-(5-fluoro-1,2-dihydro-2-oxo-3H-indol-3-ylidine)methyl]-2,4-dimethyl-1H-pyrrole-3 carboxamide]
number of patients "non-responsive" (sum of the lesion sizes increased by at least 20%) [1]: 17 patients
number of patients "responsive" (at least 30% decrease in the sum of the diameters of the lesions) [1]: 15 patients
number of patients "stable" [1]: 18 patients
fraction of RCC patients who respond to the treatment ([2]; RCC patients): about one third
reduction of the risk of relapse (progression-free survival) ([2]; first-line therapy, mRCC, compared to interferon-α): 58%
adverse side effects ([2]; patients, typical treatment session 3 months): significant adverse side effects

BEV: a monoclonal humanized antibody against circulating VEGF
activity in patients with RCC (RCC): showed activity only as second-line treatment and only in cytokine-refractory patients
